Results on 1 molecule are retold here after patent publication US20120270237A9, “METHODS FOR THE IDENTIFICATION OF KINASE INTERACTING MOLECULES AND FOR THE PURIFICATION OF KINASE PROTEINS” (Cellzone AG, priority 2009, published 2012).

A word on the inhibition: it is the drop in the measured response relative to a control, in per cent.

Molecules are shown by their SMILES.

The experiment concerns the target T1, TBK1 (Homo sapiens, UniProt Q9UHD2).
T1 sequence (Q9UHD2 1-729): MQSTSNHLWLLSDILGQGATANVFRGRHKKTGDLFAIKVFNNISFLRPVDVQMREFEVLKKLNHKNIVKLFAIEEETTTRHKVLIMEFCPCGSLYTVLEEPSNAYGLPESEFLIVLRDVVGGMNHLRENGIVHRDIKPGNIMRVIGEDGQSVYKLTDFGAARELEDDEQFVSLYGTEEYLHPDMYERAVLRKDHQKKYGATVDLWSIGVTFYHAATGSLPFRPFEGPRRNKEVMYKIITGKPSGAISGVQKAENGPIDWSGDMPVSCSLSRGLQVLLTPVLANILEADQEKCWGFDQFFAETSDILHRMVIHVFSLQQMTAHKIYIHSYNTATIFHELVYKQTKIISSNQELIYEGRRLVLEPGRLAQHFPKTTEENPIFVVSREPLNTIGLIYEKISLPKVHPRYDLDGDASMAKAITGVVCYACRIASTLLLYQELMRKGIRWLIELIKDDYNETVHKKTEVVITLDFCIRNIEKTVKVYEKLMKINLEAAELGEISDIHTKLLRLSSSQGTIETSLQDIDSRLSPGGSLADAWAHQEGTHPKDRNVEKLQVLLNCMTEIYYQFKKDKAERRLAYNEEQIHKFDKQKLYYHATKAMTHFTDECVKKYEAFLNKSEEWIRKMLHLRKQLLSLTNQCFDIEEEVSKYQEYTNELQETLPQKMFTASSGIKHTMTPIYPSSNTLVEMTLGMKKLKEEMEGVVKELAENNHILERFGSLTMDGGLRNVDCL
Put plainly: Kinobeads competition binding, L-363 cell lysate. Set-up: capturing and identification of kinases from L-363 cell lysate; endogenous in cells; host or cells: L-363 (treated with MG132 before harvest). Particulars: 10 μM free compound, L-363 lysate. On the procedure:
To one aliquot of cell lysate 10 μM of the free compound (FIG. 3, CZC31326) was added and allowed to bind to proteins in the lysate. Then the affinity matrix with the immobilized compound was added to capture proteins that were not interacting with the previously added free compound. Beads were separated from the lysate and bead bound proteins were eluted in SDS sample buffer and subsequently separated by SDS-Polyacrylamide gel electrophoresis (FIG. 8). Suitable gel bands were cut out and subjected to in-gel proteolytic digestion with trypsin. The second lysate aliquot was processed identically, however no free compound was added (DMSO solvent control). Peptides originating from samples 1 and 2 were labeled with iTRAQ reagents (iTRAQ 114 and iTRAQ 117) and the combined samples were analyzed with a nano-flow liquid chromatography system coupled online to a tandem mass spectrometer (LC-MS/MS) experiment followed by iTRAQ reporter ion quantification in the MS/MS spectra as described in Example 2.
For this experiment the human plasma cell leukaemia line L-363 was used (German Collection of Microorganisms and Cell Cultures, DSMZ number ACC49, Braunschweig, Germany). Cells were treated for three hours with 20 μM of the proteasome inhibitor MG132 (Z-Leu-Leu-Leu-al, Sigma C2211) prior to cell harvesting.

`CS(=O)(=O)Nc1ccccc1Nc1nc(Nc2cccc(OCCN)c2)ncc1Cl` [CZC31326, N-(2-(2-(3-(2-aminoethoxy)phenylamino)-5-chloropyrimidin-4-ylamino)phenyl)methanesulfonamide] showed an inhibition at 10 µM of 95.8%.
